The values below come from article PMC7271668 (Frontiers in Pharmacology, 2020).

For series [1], the target named is T1, human OAT1 (Homo sapiens, UniProt Q4U2R8).
T1 construct: expressed in transfected cells; gift of Prof; Dafang Zhong, Shanghai Institute of Materia Medica
T1 sequence (Q4U2R8 1-563): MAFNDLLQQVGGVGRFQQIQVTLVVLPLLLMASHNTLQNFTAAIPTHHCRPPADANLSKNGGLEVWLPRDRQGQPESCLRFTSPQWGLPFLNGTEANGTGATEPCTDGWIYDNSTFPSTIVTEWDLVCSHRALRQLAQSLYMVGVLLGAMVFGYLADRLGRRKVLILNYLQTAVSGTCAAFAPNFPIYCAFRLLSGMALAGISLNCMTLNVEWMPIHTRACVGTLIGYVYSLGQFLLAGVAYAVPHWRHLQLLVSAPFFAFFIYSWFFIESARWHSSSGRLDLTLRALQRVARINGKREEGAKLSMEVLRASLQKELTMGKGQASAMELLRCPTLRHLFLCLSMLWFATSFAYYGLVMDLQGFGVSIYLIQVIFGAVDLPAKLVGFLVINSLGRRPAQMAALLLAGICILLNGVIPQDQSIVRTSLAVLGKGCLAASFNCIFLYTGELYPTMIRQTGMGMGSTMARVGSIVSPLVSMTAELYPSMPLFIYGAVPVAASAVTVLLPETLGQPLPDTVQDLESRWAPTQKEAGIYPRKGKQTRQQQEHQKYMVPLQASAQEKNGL
Kind of series: Enalaprilat uptake kinetics in HEK293 cells overexpressing human OAT1. In kind it is in vitro ADME. Particulars: OAT1-transfected HEK293, net uptake (mock subtracted), enalaprilat 0-500 μM, 5 min incubation. The protocol: (§1) Human embryonic kidney 293 (HEK293) cells stably overexpressing human OAT1, OAT3, organic cation transporter 2 (OCT2), OATP1B1, OATP1B3 or OATP2B1 as well as empty vectors were generously provided by Professor Dafang Zhong, Shanghai Institute of Materia Medica, Chinese Academy of Sciences (Shanghai, China). Respective transport activities had been validated using specific probe substrates ([Zhong et al., 2014]). All cells were grown in DMEM supplemented with 10% FBS, at 37°C with 5% CO2 and 95% humidity.
(§2) Cells were seeded in 24-well plates at a density of 200,000 cells per well and cultured in high glucose DMEM for 48 h. On the third day and prior to the start of the uptake experiment, cells were washed thrice with pre-warmed HBSS and then incubated with HBSS for 30 min at 37°C. […] Incubations were terminated 5 min after the addition of substrate by washing with ice-cold HBSS. Cells were immediately lysed with 200 μl ultrapure water by repeated freezing and thawing up to three times. Intracellular drug concentrations were determined using a liquid chromatography - tandem mass spectrometry (LC-MS/MS) method. Cellular protein levels were estimated using the Bicinchoninine acid assay per manufacturer’s instruction (Takara, Japan).
(§3) Kinetic parameters of transporter-mediated uptake were estimated by nonlinear regression analysis using GraphPad Prism 5.01 (La Jolla, CA, USA). […]

The target of series [2] is T2, human OATP2B1 (Homo sapiens, UniProt O94956).
T2 construct: expressed in transfected cells; gift of Prof; Dafang Zhong, Shanghai Institute of Materia Medica
T2 sequence (O94956 1-709): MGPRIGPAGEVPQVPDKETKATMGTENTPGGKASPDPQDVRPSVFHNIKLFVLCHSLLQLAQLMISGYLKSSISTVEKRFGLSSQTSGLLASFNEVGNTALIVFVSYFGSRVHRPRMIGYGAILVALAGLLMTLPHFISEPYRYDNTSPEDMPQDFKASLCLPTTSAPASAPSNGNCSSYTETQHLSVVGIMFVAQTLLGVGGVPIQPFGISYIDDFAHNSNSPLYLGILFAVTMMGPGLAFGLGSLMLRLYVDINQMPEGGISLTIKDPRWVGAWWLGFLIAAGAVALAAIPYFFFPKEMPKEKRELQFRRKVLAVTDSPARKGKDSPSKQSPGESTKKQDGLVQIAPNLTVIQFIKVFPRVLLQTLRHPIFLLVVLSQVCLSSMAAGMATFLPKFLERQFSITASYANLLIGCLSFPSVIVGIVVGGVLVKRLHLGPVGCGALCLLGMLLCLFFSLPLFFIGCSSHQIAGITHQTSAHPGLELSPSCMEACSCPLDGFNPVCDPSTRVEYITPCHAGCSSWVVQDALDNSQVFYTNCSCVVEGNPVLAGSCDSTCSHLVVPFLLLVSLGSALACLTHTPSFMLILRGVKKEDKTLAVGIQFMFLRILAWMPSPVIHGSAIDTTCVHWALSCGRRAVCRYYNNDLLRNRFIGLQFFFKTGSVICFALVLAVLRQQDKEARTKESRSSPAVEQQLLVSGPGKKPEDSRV
Kind of series: Enalaprilat uptake kinetics in HEK293 cells overexpressing human OATP2B1. In kind it is in vitro ADME. Particulars: OATP2B1-transfected HEK293, net uptake (mock subtracted), enalaprilat 0-500 μM, 5 min incubation. The protocol: as §1, §2, §3

The conditions of series [3]: after oral administration of enalapril; ref Ulm et al., 1982; MacFadyen et al., 1993; cited from earlier work.
The target of series [4] is T3, human OAT3 (Homo sapiens, UniProt Q8TCC7).
T3 sequence (Q8TCC7 1-542): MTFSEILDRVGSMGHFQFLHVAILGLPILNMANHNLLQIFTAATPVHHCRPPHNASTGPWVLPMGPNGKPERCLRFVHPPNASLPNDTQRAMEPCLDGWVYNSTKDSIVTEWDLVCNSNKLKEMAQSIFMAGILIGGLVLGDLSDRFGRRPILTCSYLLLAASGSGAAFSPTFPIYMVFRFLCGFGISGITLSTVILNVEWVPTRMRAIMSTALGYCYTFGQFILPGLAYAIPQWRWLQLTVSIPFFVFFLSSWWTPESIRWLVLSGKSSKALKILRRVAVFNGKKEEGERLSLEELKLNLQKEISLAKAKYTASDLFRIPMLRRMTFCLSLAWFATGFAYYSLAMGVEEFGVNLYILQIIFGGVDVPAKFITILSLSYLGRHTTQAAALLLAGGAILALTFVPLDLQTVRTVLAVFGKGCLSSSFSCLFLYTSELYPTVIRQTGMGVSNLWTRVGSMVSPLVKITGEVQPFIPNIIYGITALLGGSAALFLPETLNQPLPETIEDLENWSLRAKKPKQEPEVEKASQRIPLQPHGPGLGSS
Kind of series: Enalaprilat uptake kinetics in HEK293 cells overexpressing human OAT3. In kind it is in vitro ADME. Set-up: expressed in transfected cells; gift of Prof; Dafang Zhong, Shanghai Institute of Materia Medica. The conditions noted are these: OAT3-transfected HEK293, net uptake (mock subtracted), enalaprilat 0-500 μM, 5 min incubation. How it is done: as §1, §2, §3

As for `C[C@H](N[C@@H](CCc1ccccc1)C(=O)O)C(=O)N1CCC[C@H]1C(=O)O` [Enalaprilat], the Vmax in series [1] was determined as 42.4 ± 1.3 nmol/min/mg protein; in series [2], 20.1 ± 2.7 nmol/min/mg protein; in series [4], 87.4 ± 1.1 nmol/min/mg protein. Besides, the “Excreted into the urine, % of the dose” value in series [3] was 43 % of the dose.
